According to publication doi:10.1101/2025.07.30.667614, “Steric control of signaling bias in the immunometabolic receptor GPR84” (bioRxiv, 2025):

Tests used:
[1] = molecular target: T1, GPR84 Y81A (GPR84-Gi2α fusion protein) (Homo sapiens, UniProt Q9NQS5, Y81A); test: [35S]GTPγS binding assay; type: biochemical; conditions: [35S]GTPγS; Y81A; read-out: Emax ± SEM
T1 construct: FLAG (N); Gαi2-Cys352Ile (fusion partner) (C); expressed in transfected cells
Description: (§1) Membranes were generated from Flp-In™ T-REx™ 293 cells following 100 ng/ml doxycycline treatment to induce receptor expression. Cells were washed with ice-cold phosphate-buffered saline (PBS), removed from dishes by scraping and centrifuged at 1,800 x g for 5 min at 4 °C. Pellets were resuspended in TE buffer (10mM Tris-HCl, 0.1 mM EDTA; pH 7.4) containing a protease inhibitor mixture and homogenized with a 5 ml hand-held homogenizer. Samples were centrifuged at 450 x g for 5 min at 4 °C and the supernatant was further centrifuged at 90,000 x g for 45 min at 4 °C. The resulting pellet was resuspended in TE buffer and protein content was assessed using a BCA protein assay kit.
(§2) Prepared membrane protein (3 μg per well) was incubated in assay buffer (20 mM HEPES, 5 mM MgCl2, 160 mM NaCl, 0.05 % fatty-acid-free bovine serum albumin; pH 7.4) containing the indicated ligand concentrations. The reaction was initiated by addition of [^35S]GTPγS (100 nCi per reaction) with 1 μM GDP, and incubated at 30 °C for 60 min. The reaction was terminated by rapid vacuum filtration through GF/C glassfibre filter-bottom 96-well microplates using a UniFilter FilterMate Harvester (PerkinElmer). Unbound radioligand was removed from filters by three washes with ice-cold PBS. Ultima Gold™ XR was added to dried filters, and [^35S]GTPγS binding quantified by liquid scintillation spectroscopy.

GPR84 Y332A = molecular target: T2, GPR84 Y332A (Homo sapiens, UniProt Q9NQS5, Y332A); test: [35S]GTPγS binding assay; type: biochemical; conditions: [35S]GTPγS; Y332A; read-out: Emax ± SEM
T2 construct: FLAG (N); Gαi2-Cys352Ile (fusion partner) (C); expressed in transfected cells
T2 sequence (Q9NQS5 whole entry Y332A, the tested form may be a part): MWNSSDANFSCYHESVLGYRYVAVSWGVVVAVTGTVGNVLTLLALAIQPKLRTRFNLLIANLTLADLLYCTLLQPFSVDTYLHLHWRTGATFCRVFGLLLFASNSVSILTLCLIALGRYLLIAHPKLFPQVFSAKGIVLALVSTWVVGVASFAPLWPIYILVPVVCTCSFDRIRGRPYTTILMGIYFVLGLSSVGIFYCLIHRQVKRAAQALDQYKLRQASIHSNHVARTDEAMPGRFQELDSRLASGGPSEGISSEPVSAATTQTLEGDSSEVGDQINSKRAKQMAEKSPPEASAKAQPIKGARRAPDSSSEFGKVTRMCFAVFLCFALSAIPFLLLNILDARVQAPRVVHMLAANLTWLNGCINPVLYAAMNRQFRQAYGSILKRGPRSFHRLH
Description: as §1, §2

GPR84 N362S = molecular target: T3, GPR84 N362S (Homo sapiens, UniProt Q9NQS5, N362S); test: [35S]GTPγS binding assay; type: biochemical; conditions: [35S]GTPγS; N362S; read-out: Emax ± SEM
T3 construct: FLAG (N); Gαi2-Cys352Ile (fusion partner) (C); expressed in transfected cells
T3 sequence (Q9NQS5 whole entry N362S, the tested form may be a part): as the sequence (Q9NQS5 whole entry Y332A, the tested form may be a part) above, with A332Y, N362S counted along it
Description: as §1, §2

[2] = molecular target: GPR84-WT (GPR84-Gi2α fusion protein) (Homo sapiens, UniProt Q9NQS5); test: [35S]GTPγS binding assay; type: biochemical; conditions: [35S]GTPγS, GPR84-WT; for EC50: Extended Data Table 3, read-out: pEC50 ± SEM (converted)
Chain of GPR84-WT (GPR84-Gi2α fusion protein) (Q9NQS5 whole entry, the tested form may be a part): as the sequence (Q9NQS5 whole entry Y332A, the tested form may be a part) above, with A332Y counted along it
Chain of GPR84-WT (GPR84-Gi2α fusion protein) (P04899 with tags, fused parts or gaps C352I partner): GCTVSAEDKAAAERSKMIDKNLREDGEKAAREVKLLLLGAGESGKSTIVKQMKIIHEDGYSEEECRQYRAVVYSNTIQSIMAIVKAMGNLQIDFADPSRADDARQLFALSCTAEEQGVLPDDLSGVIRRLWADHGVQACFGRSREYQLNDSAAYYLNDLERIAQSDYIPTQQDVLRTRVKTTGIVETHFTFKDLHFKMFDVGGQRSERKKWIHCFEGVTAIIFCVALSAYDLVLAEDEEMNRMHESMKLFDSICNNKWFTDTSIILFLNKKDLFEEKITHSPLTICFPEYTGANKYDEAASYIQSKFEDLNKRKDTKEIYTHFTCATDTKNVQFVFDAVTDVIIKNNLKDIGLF
Description: as §1, §2

[3] = molecular target: T4, GPR84 T167A (GPR84-Gi2α fusion protein) (Homo sapiens, UniProt Q9NQS5, T167A); test: [35S]GTPγS binding assay; type: biochemical; conditions: [35S]GTPγS; T167A; read-out: Emax ± SEM
T4 construct: FLAG (N); Gαi2-Cys352Ile (fusion partner) (C); expressed in transfected cells
T4 sequence (Q9NQS5 whole entry T167A, the tested form may be a part): as the sequence (Q9NQS5 whole entry Y332A, the tested form may be a part) above, with T167A, A332Y counted along it
Description: as §1, §2

[4] = molecular target: T5, GPR84 Y69A (GPR84-Gi2α fusion protein) (Homo sapiens, UniProt Q9NQS5, Y69A); test: [35S]GTPγS binding assay; type: biochemical; conditions: [35S]GTPγS; Y69A; read-out: Emax ± SEM
T5 construct: FLAG (N); Gαi2-Cys352Ile (fusion partner) (C); expressed in transfected cells
T5 sequence (Q9NQS5 whole entry Y69A, the tested form may be a part): as the sequence (Q9NQS5 whole entry Y332A, the tested form may be a part) above, with Y69A, A332Y counted along it
Description: as §1, §2

[5] = molecular target: T6, GPR84 W360A (GPR84-Gi2α fusion protein) (Homo sapiens, UniProt Q9NQS5, W360A); test: [35S]GTPγS binding assay; type: biochemical; conditions: [35S]GTPγS; W360A; read-out: Emax ± SEM
T6 construct: FLAG (N); Gαi2-Cys352Ile (fusion partner) (C); expressed in transfected cells
T6 sequence (Q9NQS5 whole entry W360A, the tested form may be a part): as the sequence (Q9NQS5 whole entry Y332A, the tested form may be a part) above, with A332Y, W360A counted along it
Description: as §1, §2

[6] = molecular target: T7, GPR84 N104A (GPR84-Gi2α fusion protein) (Homo sapiens, UniProt Q9NQS5, N104A); test: [35S]GTPγS binding assay; type: biochemical; conditions: [35S]GTPγS; N104A; read-out: Emax ± SEM
T7 construct: FLAG (N); Gαi2-Cys352Ile (fusion partner) (C); expressed in transfected cells
T7 sequence (Q9NQS5 whole entry N104A, the tested form may be a part): as the sequence (Q9NQS5 whole entry Y332A, the tested form may be a part) above, with N104A, A332Y counted along it
Description: as §1, §2

GPR84 Y332F = molecular target: T8, GPR84 Y332F (Homo sapiens, UniProt Q9NQS5, Y332F); test: [35S]GTPγS binding assay; type: biochemical; conditions: [35S]GTPγS; Y332F; read-out: Emax ± SEM
T8 construct: FLAG (N); Gαi2-Cys352Ile (fusion partner) (C); expressed in transfected cells
T8 sequence (Q9NQS5 whole entry Y332F, the tested form may be a part): as the sequence (Q9NQS5 whole entry Y332A, the tested form may be a part) above, with A332F counted along it
Description: as §1, §2

[7] = molecular target: T9, GPR84 S169A (GPR84-Gi2α fusion protein) (Homo sapiens, UniProt Q9NQS5, S169A); test: [35S]GTPγS binding assay; type: biochemical; conditions: [35S]GTPγS; S169A; read-out: Emax ± SEM
T9 construct: FLAG (N); Gαi2-Cys352Ile (fusion partner) (C); expressed in transfected cells
T9 sequence (Q9NQS5 whole entry S169A, the tested form may be a part): as the sequence (Q9NQS5 whole entry Y332A, the tested form may be a part) above, with S169A, A332Y counted along it
Description: as §1, §2

[8] = molecular target: T10, GPR84 R172A (GPR84-Gi2α fusion protein) (Homo sapiens, UniProt Q9NQS5, R172A); test: [35S]GTPγS binding assay; type: biochemical
T10 construct: FLAG (N); Gαi2-Cys352Ile (fusion partner) (C); expressed in transfected cells
T10 sequence (Q9NQS5 whole entry R172A, the tested form may be a part): as the sequence (Q9NQS5 whole entry Y332A, the tested form may be a part) above, with R172A, A332Y counted along it
Description: as §1, §2

wild type GPR84 = molecular target: T11, wild type GPR84 (Homo sapiens, UniProt Q9NQS5); test: pThr263/pThr264 immunoblot of immunoprecipitated GPR84-eYFP; type: cell-based; conditions: 1 μM
T11 construct: expressed in transfected cells
T11 sequence (Q9NQS5 whole entry): as the sequence (Q9NQS5 whole entry Y332A, the tested form may be a part) above, with A332Y counted along it
Description: eYFP-linked receptor constructs were immunoprecipitated from 200 μl cell lysates using GFP-Trap® agarose beads (Proteintech) according to manufacturer’s instructions. Immunocomplexes were washed three times in washing buffer, resuspended in 100 μl 2 × SDS-PAGE sample buffer and incubated at 60 °C for 10 min. Following centrifugation at 2500g for 5 min, 20 μl of immunoprecipitated proteins was resolved by SDS-PAGE on 4% to 12% BisTris gels. After separation, the proteins were transferred electrophoretically onto nitrocellulose membrane, which was then blocked using 5% bovine serum albumin (BSA) in Tris-buffered saline (TBS, 50 mM Tris-Cl, 150 mM NaCl, pH 7.6) for 1 h at room temperature on an orbital shaker. The membrane was then incubated with appropriate primary antibody in 5% BSA in TBS supplemented with 0.1% Tween (TBS-T) overnight at 4 °C. Anti-pThr^263/pThr^264 antiserum was diluted 1:2000 and anti-GFP was diluted 1:10,000. Subsequently, the membrane was washed (3 × 10 min with TBS-T) and incubated for 2 h with anti-rabbit secondary antibody diluted 1:10,000 in 5% BSA in TBS-T. After washing (3 × 10 min with TBS-T), proteins were detected using an Odyssey imaging system (Licor) according to the manufacturer’s instructions.

GPR84 [9] = molecular target: T12, GPR84 (Homo sapiens, UniProt Q9NQS5); test: CHO-K1-based HitHunter cAMP inhibition assay; type: cell-based; conditions: wild type GPR84; for Emax: normalised to capric acid (100 μM), read-out: cAMP %Emax ± SEM; for EC50: CHO-K1 cells, forskolin 25 μM, read-out: cAMP pEC50 ± SEM (converted)
T12 sequence (Q9NQS5 whole entry): as the sequence (Q9NQS5 whole entry Y332A, the tested form may be a part) above, with A332Y counted along it
Description: CHO-K1 cells stably expressing human GPR84 (DiscoverX 95-0158C2) were seeded in 384-well plates at 15,000 cells per well in 20 μL of F12 medium supplemented with 10% fetal bovine serum (FBS), 19 mM HEPES, and 1% penicillin-streptomycin. After overnight incubation at 37 °C and 5% CO2, the medium was removed and replaced with PBS containing 0.1% BSA. Cells were stimulated for 30 min with forskolin (25 μM) and test compounds prepared in Dulbecco’s PBS (DPBS) with 0.1% BSA. Compounds were dissolved in DMSO and diluted appropriately. cAMP levels were quantified using the HitHunter® cAMP Assay for Small Molecules (DiscoverX 90-0075SM2) according to the manufacturer’s protocol. Luminescence was measured 18 h post-assay using a PHERAstar® FS plate reader (BMG Labtech).

GPR84 [10] = molecular target: T12, GPR84; test: CHO-K1-based PathHunter β-arrestin-2 recruitment assay; type: cell-based; design: host or cells: CHO-K1; conditions: for Emax: read-out: β-arrestin-2 %Emax ± SEM; for EC50: wild type GPR84, CHO-K1 PathHunter, read-out: β-arrestin-2 pEC50 ± SEM (converted); for change in efficacy in β-arrestin-2 recruitment: compared to OX04929 (so in the source)
Description: Cells were stimulated with test ligands for 90 min. Compounds were prepared at 5× concentration in DPBS containing 0.1% BSA and 0.125% Tween-80 to minimise aggregation. β-arrestin recruitment was quantified using the PathHunter® β-Arrestin Assay (DiscoverX 93-0001) following the manufacturer’s instructions. Luminescence was recorded after 18 h using a PHERAstar® FS plate reader.

T1 sequence (Q9NQS5 whole entry Y81A, the tested form may be a part): as the sequence (Q9NQS5 whole entry Y332A, the tested form may be a part) above, with Y81A, A332Y counted along it

Emax (GPR84 [9])	Emax (GPR84 [10])	EC50 (GPR84 [9])	EC50 (GPR84 [10])	change in efficacy in β-arrestin-2 recruitment (GPR84 [10])	other results	SMILES
100 ± 0.8%	100%	–	–	–	Emax [1]: 134 ± 5%; Emax (GPR84 Y332A): 57 ± 10%; Emax (GPR84 N362S): 196 ± 32%; Emax ([2]; Extended Data Tables 1 and 5, read-out: Emax ± SEM): 150 ± 14%; Emax [3]: 139 ± 7%; Emax [4]: 101 ± 14%; Emax [5]: 94 ± 13%; Emax [6]: 150 ± 23%; Emax (GPR84 Y332F): 167 ± 2%; Emax [7]: 84 ± 4%; Emax [8]: 42 ± 4%; phosphorylation of Thr263 and Thr264 (immunoblot) (wild type GPR84): promoted phosphorylation	CCCCCCCc1cc(O)c[n+]([O-])c1 [OX04539]
97 ± 0.7%	81 ± 5.3%	0.0204 nM	110 nM	–	–	[O-][n+]1cc(O)cc(CCCCc2ccc(Cl)cc2)c1 [OX04540]
101 ± 1.5%	21 ± 2.9%	0.0355 nM	263 nM	–	–	[O-][n+]1cc(O)cc(CCCCc2ccc(Cl)c(CO)c2)c1 [OX04955]
98 ± 2.1%	34 ± 6%	0.00912 nM	138 nM	–	–	[O-][n+]1cc(O)cc(CCCCc2ccc(Cl)c(Br)c2)c1 [OX04956]
102 ± 3%	46 ± 5.8%	0.0389 nM	209 nM	–	–	[O-][n+]1cc(O)cc(CCCCc2ccc(Cl)c(Cl)c2)c1 [OX04957]
99 ± 0.1%	72 ± 1.3%	0.0407 nM	70.8 nM	–	–	[O-][n+]1cc(O)cc(CCCCc2ccc(Cl)c(F)c2)c1 [OX04958]
95 ± 11.5%	24 ± 2.3%	0.00724 nM	151 nM	–	EC50 [2]: 3.98 nM	[O-][n+]1cc(O)cc(CCCCc2ccc(Cl)c(C(F)F)c2)c1 [OX04959]
107 ± 2.1%	45 ± 1.2%	0.0102 nM	447 nM	–	EC50 [2]: 6.31 nM	[O-][n+]1cc(O)cc(CCCCc2ccc(Cl)c(CF)c2)c1 [OX04960]
103 ± 3.6%	21 ± 0.3%	0.0112 nM	39.8 nM	no significant change	–	CCc1cc(CCCCc2cc(O)c[n+]([O-])c2)ccc1Cl [OX04961]
97 ± 3.4%	18 ± 2.2%	0.00933 nM	178 nM	no significant change	–	C=Cc1cc(CCCCc2cc(O)c[n+]([O-])c2)ccc1Cl [OX04962]
106 ± 3.8%	15 ± 1.1%	0.00646 nM	37.2 nM	–	–	C#Cc1cc(CCCCc2cc(O)c[n+]([O-])c2)ccc1Cl [OX04963]
94 ± 7.4%	9 ± 1.4%	0.0145 nM	–	no significant change	–	CC(C)c1cc(CCCCc2cc(O)c[n+]([O-])c2)ccc1Cl [OX04964]
103 ± 3.7%	9 ± 3%	0.00398 nM	–	no significant change	–	[O-][n+]1cc(O)cc(CCCCc2ccc(Cl)c(C3CC3)c2)c1 [OX04965]
107 ± 5.6%	5 ± 1.5%	0.17 nM	–	no significant change	–	CC1(c2cc(CCCCc3cc(O)c[n+]([O-])c3)ccc2Cl)CC1 [OX04966]
–	–	–	–	–	Emax (GPR84 Y332A): 100%; Emax (GPR84 N362S): 100%; Emax (GPR84 Y332F): 100%	Fc1cc(F)c2[nH]cc(Cc3c[nH]c4c(F)cc(F)cc34)c2c1 [PSB-16671, di(5,7-difluoro-1H-indole-3-yl)methane, reference compound]
